Experimental findings from US7205304B2, “Sulfonyl-Derivatives as novel inhibitors of histone deacetylase” (Janssen Pharmaceutica N.V., priority 2002, dated 2007) are described below.

Values after ≈ are worked out from the molar mass of the structure shown.

Series [1] addresses histone deacetylase (HeLa nuclear extracts). Description: In vitro assay for inhibition of histone deacetylase. The class given is biochemical. The following applies: [3H]acetylated histone H4 peptide substrate. As for the experimental part: The in vitro assay for inhibition of histone deacetylase (see example C.1) measures the inhibition of HDAC enzymatic activity obtained with the compounds of formula (I).
HeLa nuclear extracts (supplier: Biomol) were incubated at 60 μg/ml with 2×10^−8 M of radiolabeled peptide substrate. As a substrate for measuring HDAC activity a synthetic peptide, i.e. the amino acids 14–21 of histone H4, was used. The substrate is biotinylated at the NH2-terminal part with a 6-aminohexanoic acid spacer, and is protected at the COOH-terminal part by an amide group and specifically [^3H]acetylated at lysine 16. The substrate, biotin-(6-aminohexanoic)Gly-Ala-([^3H]-acetyl-Lys-Arg-His-Arg-Lys-Val-NH2), was added in a buffer containing 25 mM Hepes, 1 M sucrose, 0.1 mg/ml BSA and 0.01% Triton X-100 at pH 7.4. After 30 min the deacetylation reaction was terminated by the addition of HCl and acetic acid. (final concentration 0.035 mM and 3.8 mM respectively). After stopping the reaction, the free ^3H-acetate was extracted with ethylacetate. After mixing and centrifugation, the radioactivity in an aliquot of the upper (organic) phase was counted in a β-counter.
For each experiment, controls (containing HeLa nuclear extract and DMSO without compound), a blank incubation (containing DMSO but no HeLa nuclear extract or compound) and samples (containing compound dissolved in DMSO and HeLa nuclear extract) were run in parallel. In first instance, compounds were tested at a concentration of 10^−5M. […] In each test the blank value was substracted from both the control and the sample values. The control sample represented 100% of substrate deactylation. For each sample the radioactivity was expressed as a percentage of the mean value of the controls. […] Herein the effects of test compounds are expressed as pIC50 (the negative log value of the IC50-value).

The test system of series [2] is A2780 ovarian carcinoma cells. The series is described as follows: Antiproliferative activity on A2780 cells (MTT). It is filed as cell-based, human. Particulars: Homo sapiens, A2780, 96 h, four days of incubation, read-out: Cellular activity pIC50 (converted). As for the experimental part:
Cellular activity of the compounds of formula (I) was determined on A2780 tumour cells using a colorimetric assay for cell toxicity or survival (Mosmann Tim, Journal of Immunological Methods 65: 55–63, 1983)(see example C.2).
All compounds tested were dissolved in DMSO and further dilutions were made in culture medium. Final DMSO concentrations never exceeded 0.1% (v/v) in cell proliferation assays. Controls contained A2780 cells and DMSO without compound and blanks contained DMSO but no cells. MTT was dissolved at 5 mg/ml in PBS. A glycine buffer comprised of 0.1 M glycine and 0.1 M NaCl buffered to pH 10.5 with NaOH (1 N) was prepared (all reagents were from Merck).
The human A2780 ovarian carcinoma cells (a kind gift from Dr. T. C. Hamilton [Fox Chase Cancer Centre, Pennsylvania, USA]) were cultured in RPMI 1640 medium supplemented with 2 mM L-glutamine, 50 μg/ml gentamicin and 10% fetal calf serum. Cells were routinely kept as monolayer cultures at 37° C. in a humidified 5% CO2 atmosphere. Cells were passaged once a week using a trypsin/EDTA solution at a split ratio of 1:40. All media and supplements were obtained from Life Technologies. Cells were free of mycoplasma contamination as determined using the Gen-Probe Mycoplasma Tissue Culture kit (supplier: BioMérieux).
Cells were seeded in NUNC™ 96-well culture plates (Supplier: Life Technologies) and allowed to adhere to the plastic overnight. Densities used for plating were 1500 cells per well in a total volume of 200 μl medium. After cell adhesion to the plates, medium was changed and drugs and/or solvents were added to a final volume of 200 μl. Following four days of incubation, medium was replaced by 200 μl fresh medium and cell density and viability was assessed using an MTT-based assay. To each well, 25 μl MTT solution was added and the cells were further incubated for 2 hours at 37° C. The medium was then carefully aspirated and the blue MTT-formazan product was solubilized by addition of 25 μl glycine buffer followed by 100 μl of DMSO. […] Within an experiment, the results for each experimental condition are the mean of 3 replicate wells. For initial screening purposes, compounds were tested at a single fixed concentration of 10^−6 M. For active compounds, the experiments were repeated to establish full concentration-response curves. For each experiment, controls (containing no drug) and a blank incubation (containing no cells or drugs) were run in parallel. The blank value was subtracted from all control and sample values. For each sample, the mean value for cell growth (in absorbance units) was expressed as a percentage of the mean value for cell growth of the control. […] Herein the effects of test compounds are expressed as pIC50 (the negative log value of the IC50-value).

Series [3] can be described thus: Kinetic solubility in aqueous media (nephelometry). It is filed as physicochemical. The following applies: phosphate citrate buffer, pH 7.4, aqueous buffer, kinetic from dmso stock, phosphate citrate buffer pH 7.4, turbidity of three dilution steps; read-out: Solubility Score. The procedure: Kinetic solubility in aqueous media measures the ability of a compound to stay in aqueous solution upon dilution (see example C.3).
DMSO-stock solutions are diluted with a single aqueous buffer solvent in 3 consecutive steps. For every dilution turbidity is measured with a nephelometer.
In the first dilution step, 10 μl of a concentrated stock-solution of the active compound, solubilized in DMSO (5 mM), was added to 100 μl phosphate citrate buffer pH 7.4 and mixed. In the second dilution step, an aliquot (20 μl) of the first dilution step was further dispensed in 100 μl phosphate citrate buffer pH 7.4 and mixed. Finally, in the third dilution step, a sample (20 μl) of the second dilution step was further diluted in 100 μl phosphate citrate buffer pH 7.4 and mixed. All dilutions were performed in 96-well plates. Immediately after the last dilution step the turbidity of the three consecutive dilution steps were measured with a nephelometer. Dilution was done in triplicate for each compound to exclude occasional errors. Based on the turbidity measurements a ranking is performed into 3 classes. Compounds with high solubility obtained a score of 3 and for this compounds the first dilution is clear. Compounds with medium solubility obtained a score of 2. For these compounds the first dilution is unclear and the second dilution is clear. […] The solubility of 112 compounds was measured.

For `O=C(NO)c1cnc(N2CCN(S(=O)(=O)c3ccc(S(=O)(=O)c4ccccc4)s3)CC2)nc1` [Compound 183], the “Enzyme activity pIC50” value in series [1] stood at 7.631. In series [2], the IC50 was 2320 nM. The solubility in series [3] lay within 75.8 to 454 µM (≈ 38.6 to 232 µg/mL).
The like results for `Nc1ccccc1NC(=O)c1ccc(N2CCN(S(=O)(=O)c3ccc4ccccc4c3)CC2)cc1` [Compound 17] were, in that order, <5, 764 nM and < 75.8 µM.
For `O=C(NO)c1ccc(N2CCN(S(=O)(=O)c3ccc(Br)cc3)CC2)cc1` [Compound 78], the “Enzyme activity pIC50” value in series [1] is on record as 6.306. The IC50 in series [2] was 1250 nM. The solubility in series [3] was in the range of 75.8 to 454 µM (≈ 33.4 to 200 µg/mL).
The like results for `Cc1ccc(-c2ccc(S(=O)(=O)N3CCN(c4ncc(C(=O)NO)cn4)CC3)cc2)cc1` [Compound 179] were, in that order, 7.146, 119 nM and 75.8 to 454 µM (≈ 34.4 to 206 µg/mL).
The like results for `CN(C)Cc1sccc1-c1ccc(S(=O)(=O)N2CCN(c3ncc(C(=O)NO)cn3)CC2)cc1` [Compound 124] were, in that order, 8.358, 47.9 nM and > 454 µM.
Taken in the same sequence, the figures for `CC(C)N(C)Cc1cccc(-c2ccc(S(=O)(=O)N3CCN(c4ncc(C(=O)NO)cn4)CC3)cc2)c1` [Compound 170] were 8.227, 65.3 nM and > 454 µM.
In the case of `COc1ccccc1-c1ccc(S(=O)(=O)N2CCN(c3ncc(C(=O)NO)cn3)CC2)cc1` [Compound 103], the “Enzyme activity pIC50” value in series [1] was 7.586. Further, the IC50 in series [2] is 149 nM. In addition, the solubility in series [3] fell in the range of 75.8 to 454 µM (≈ 35.6 to 213 µg/mL).
The like results for `O=C(NO)c1cnc(N2CCN(S(=O)(=O)c3ccc(-c4ccccn4)s3)CC2)nc1` [Compound 182] were, in that order, 7.634, 87.1 nM and < 75.8 µM.
With `CN(C)c1cccc(-c2ccc(S(=O)(=O)N3CCN(c4ncc(C(=O)NO)cn4)CC3)cc2)c1` [Compound 135], the “Enzyme activity pIC50” value in series [1] is reported as 7.631. For the same compound, the IC50 in series [2] is 287 nM. Besides, the solubility in series [3] was > 454 µM.
The like results for `O=C(NO)c1cnc(N2CCN(S(=O)(=O)c3ccc(-c4ccsc4CN4CCN(CCO)CC4)cc3)CC2)nc1` [Compound 152] were, in that order, 8.156, 164 nM and > 454 µM.
Consider `CN(C)c1ccc2cc(S(=O)(=O)N3CCN(c4ncc(C(=O)NO)cn4)CC3)ccc2c1` [Compound 181], for which, in series [1], the “Enzyme activity pIC50” value stood at 7.098. Besides, in series [2], the IC50 is 119 nM. Also, the solubility in series [3] was > 454 µM.
In the case of `O=C(NO)c1cnc(N2CCN(S(=O)(=O)c3ccc(-c4ccccc4CN4CCOCC4)cc3)CC2)nc1` [Compound 158], the “Enzyme activity pIC50” value in series [1] was determined as 7.784. Moreover, the IC50 in series [2] was 446 nM. The solubility in series [3] was 75.8 to 454 µM (≈ 40.8 to 245 µg/mL).
Taken in the same sequence, the figures for `O=C(NO)c1cnc(N2CCN(S(=O)(=O)c3ccc(/C=C/c4ccccc4)cc3)CC2)nc1` [Compound 109] were 7.176, 258 nM and 75.8 to 454 µM (≈ 35.3 to 212 µg/mL).
Taken in the same sequence, the figures for `O=C(CS)Nc1ccc(N2CCN(S(=O)(=O)c3ccc4ccccc4c3)CC2)cc1` [Compound 19] were <5, > 10000 nM and < 75.8 µM.
Taken in the same sequence, the figures for `O=C(NO)c1ccc(N2CCN(S(=O)(=O)c3cccc4ccccc34)CC2)cc1` [Compound 81] were 6.873, 1300 nM and < 75.8 µM.
Turning to `CN1CCN(Cc2ccccc2-c2ccc(S(=O)(=O)N3CCN(c4ncc(C(=O)NO)cn4)CC3)cc2)CC1` [Compound 157], the “Enzyme activity pIC50” value in series [1] is 8.228. For the same compound, the IC50 in series [2] is 96.2 nM. Moreover, the solubility in series [3] was > 454 µM.
Taken in the same sequence, the figures for `O=C(NO)c1ccc(N2CCN(S(=O)(=O)c3ccc(Oc4ccccc4)cc3)CC2)cc1` [Compound 82] were 5.821, 1080 nM and > 454 µM.
As to `O=C(NO)c1cnc(N2CCN(S(=O)(=O)c3ccc(-c4ccc(F)cc4F)cc3)CC2)nc1` [Compound 107], the “Enzyme activity pIC50” value in series [1] is 7.663. The IC50 in series [2] was 144 nM. The solubility in series [3] is 75.8 to 454 µM (≈ 36 to 216 µg/mL).
Regarding `O=C(NO)c1cnc(N2CCN(S(=O)(=O)c3ccc(-c4cccc(CCN5CCCC5)c4)cc3)CC2)nc1` [Compound 127], the “Enzyme activity pIC50” value in series [1] is on record as 8.482. Also, the IC50 in series [2] is 68.9 nM. Besides, in series [3], the solubility is > 454 µM.
`O=C(NO)c1ccc(N2CCN(S(=O)(=O)c3cccc(F)c3)CC2)cc1` [Compound 61]: the “Enzyme activity pIC50” value in series [1] is on record as 6.255. Also, the IC50 in series [2] is 2790 nM. Further, the solubility in series [3] fell in the range of 75.8 to 454 µM (≈ 28.8 to 172 µg/mL).
On to `CN1CCN(Cc2cccc(-c3ccc(S(=O)(=O)N4CCN(c5ncc(C(=O)NO)cn5)CC4)cc3)c2)CC1` [Compound 169], for which the “Enzyme activity pIC50” value in series [1] worked out at 8.338. For the same compound, the IC50 in series [2] was 72.4 nM. Also, the solubility in series [3] is > 454 µM.
Taken in the same sequence, the figures for `O=C(NO)c1ccc(N2CCN(S(=O)(=O)c3cc(S(=O)(=O)c4ccccc4)cs3)CC2)cc1` [Compound 69] were 5.978, > 10000 nM and > 454 µM.
As to `O=C(NO)c1cnc(N2CCN(S(=O)(=O)c3ccc(-c4ccsc4CN4CCOCC4)cc3)CC2)nc1` [Compound 148], the “Enzyme activity pIC50” value in series [1] came out at 7.94. For the same compound, in series [2], the IC50 is 176 nM. Also, the solubility in series [3] is < 75.8 µM.
The like results for `CN(C)CC1CN(c2ncc(C(=O)NO)cn2)CCN1S(=O)(=O)c1ccc(-c2ccccc2)cc1` (stereo not drawn) [Compound 143] were, in that order, 7.002, 1320 nM and > 454 µM.
The like results for `O=C(NO)c1ccc(N2CCN(S(=O)(=O)c3ccc(Cl)s3)CC2)cc1` [Compound 66] were, in that order, 6.197, 1330 nM and < 75.8 µM.
As for `O=C(NO)c1cnc(N2CCN(S(=O)(=O)c3ccc(-c4ccc(F)cc4)cc3)CC2)nc1` [Compound 178], the “Enzyme activity pIC50” value in series [1] came to 7.99. In series [2], the IC50 is 75.5 nM. Further, the solubility in series [3] was < 75.8 µM.
